Measured values: patent US9776995B2, “Bicyclic sulfonamide compounds as sodium channel inhibitors” (AMGEN INC., priority 2013, dated 2017)

Target: Nav 1.7 (Homo sapiens (Human), UniProt Q15858)
Assay: Nav 1.7 in vitro PX assay (PatchXpress whole cell voltage clamp);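 note: holding potential set for 20 to 50% inactivation, sodium current evoked by a 20 ms step to −10 mV, peak current inhibition read after compound exposure, 3–5 cells per concentration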
Assay type: cell-based
Settings: not given

Sequence of Nav 1.7 (Q15858 whole entry): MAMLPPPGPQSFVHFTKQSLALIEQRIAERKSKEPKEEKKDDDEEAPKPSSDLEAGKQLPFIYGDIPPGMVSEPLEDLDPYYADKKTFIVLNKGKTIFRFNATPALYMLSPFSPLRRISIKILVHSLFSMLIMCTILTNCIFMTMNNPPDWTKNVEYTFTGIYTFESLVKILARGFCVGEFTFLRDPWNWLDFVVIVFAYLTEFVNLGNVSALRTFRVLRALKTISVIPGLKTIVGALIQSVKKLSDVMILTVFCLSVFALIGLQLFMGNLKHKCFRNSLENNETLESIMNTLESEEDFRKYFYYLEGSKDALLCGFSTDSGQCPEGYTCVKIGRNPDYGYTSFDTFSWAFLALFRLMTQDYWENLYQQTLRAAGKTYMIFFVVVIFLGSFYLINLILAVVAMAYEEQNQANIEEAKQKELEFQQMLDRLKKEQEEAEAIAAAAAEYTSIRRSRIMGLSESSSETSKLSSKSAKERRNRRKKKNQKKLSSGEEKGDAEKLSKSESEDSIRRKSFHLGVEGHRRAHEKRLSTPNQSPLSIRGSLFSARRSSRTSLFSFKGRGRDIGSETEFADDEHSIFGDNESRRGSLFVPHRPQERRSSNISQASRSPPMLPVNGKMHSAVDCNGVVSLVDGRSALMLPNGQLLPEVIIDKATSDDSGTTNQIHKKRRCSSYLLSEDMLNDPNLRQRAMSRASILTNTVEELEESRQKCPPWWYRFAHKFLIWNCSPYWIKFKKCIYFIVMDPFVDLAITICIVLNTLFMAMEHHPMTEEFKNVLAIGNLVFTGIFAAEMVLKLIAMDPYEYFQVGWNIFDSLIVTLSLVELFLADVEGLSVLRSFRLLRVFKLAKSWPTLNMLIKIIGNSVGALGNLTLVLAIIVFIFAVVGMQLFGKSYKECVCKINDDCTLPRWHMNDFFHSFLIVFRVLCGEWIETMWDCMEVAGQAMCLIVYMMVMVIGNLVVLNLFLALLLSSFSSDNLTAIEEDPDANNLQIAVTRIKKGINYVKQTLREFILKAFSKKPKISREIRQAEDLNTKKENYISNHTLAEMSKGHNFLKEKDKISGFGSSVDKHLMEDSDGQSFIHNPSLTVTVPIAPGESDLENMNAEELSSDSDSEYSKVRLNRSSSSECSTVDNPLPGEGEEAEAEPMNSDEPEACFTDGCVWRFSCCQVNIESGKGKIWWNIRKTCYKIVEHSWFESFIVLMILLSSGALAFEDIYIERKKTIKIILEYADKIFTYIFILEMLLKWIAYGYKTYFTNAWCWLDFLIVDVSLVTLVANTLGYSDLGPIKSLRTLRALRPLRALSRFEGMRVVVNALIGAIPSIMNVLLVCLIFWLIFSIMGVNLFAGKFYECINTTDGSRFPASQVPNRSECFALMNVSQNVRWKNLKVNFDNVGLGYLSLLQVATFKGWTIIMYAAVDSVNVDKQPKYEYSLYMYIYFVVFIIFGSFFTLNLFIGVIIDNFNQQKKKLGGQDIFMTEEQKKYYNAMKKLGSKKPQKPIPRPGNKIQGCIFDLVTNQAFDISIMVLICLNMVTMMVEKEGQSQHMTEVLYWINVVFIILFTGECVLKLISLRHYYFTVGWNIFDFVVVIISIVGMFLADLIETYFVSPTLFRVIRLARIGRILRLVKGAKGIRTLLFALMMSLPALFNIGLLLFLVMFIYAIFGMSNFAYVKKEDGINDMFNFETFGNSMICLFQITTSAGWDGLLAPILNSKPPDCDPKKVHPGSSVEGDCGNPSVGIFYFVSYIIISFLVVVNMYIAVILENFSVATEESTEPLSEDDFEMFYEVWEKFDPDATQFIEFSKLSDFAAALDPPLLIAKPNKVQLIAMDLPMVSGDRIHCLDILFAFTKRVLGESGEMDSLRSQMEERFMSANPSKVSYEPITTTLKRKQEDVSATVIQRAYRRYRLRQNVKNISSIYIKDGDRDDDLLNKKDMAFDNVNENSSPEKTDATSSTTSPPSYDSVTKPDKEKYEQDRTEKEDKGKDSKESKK

Structure (SMILES) | IC50
COc1cc(-c2ccc(F)c(Cl)c2)c(Cl)cc1-c1ncnc2cc(S(=O)(=O)Nc3ncccn3)ccc12 [Example 329, 4-(2,3′-dichloro-4′-fluoro-5-methoxy-[1,1′-biphenyl]-4-yl)-N-(pyrimidin-2-yl)quinazoline-7-sulfonamide] | 43 nM

Same assay, conditions: HEK 293 cells stably transfected with human Nav1.7; PatchXpress; partially inactivated state

IC50 | Structure (SMILES)
36 nM | COc1cc(Cl)cc(-c2cc(OC)c(-c3ncnc4cc(S(=O)(=O)Nc5ccon5)ccc34)cc2F)c1 [Example 537, 4-(3′-chloro-2-fluoro-5,5′-dimethoxy-4-biphenylyl)-N-3-isoxazolyl-7-quinazolinesulfonamide]
34 nM | COc1cc(-c2ccc(F)c(C3CC3)c2)c(C)cc1-c1ncnc2cc(S(=O)(=O)Nc3ccon3)ccc12 [Example 554, 4-(3′-cyclopropyl-4′-fluoro-5-methoxy-2-methyl-4-biphenylyl)-N-3-isoxazolyl-7-quinazolinesulfonamide]
20 nM | COc1cc(-c2cc(F)cc(Cl)c2)c(F)cc1-c1[nH]c(=O)cc2cc(S(=O)(=O)Nc3ccon3)ccc12 [Example 547, 1-(3′-chloro-2,5′-difluoro-5-methoxy-4-biphenylyl)-N-3-isoxazolyl-3-oxo-2,3-dihydro-6-isoquinolinesulfonamide]
163 nM | COc1cc(-c2cccc(Cl)c2)c(F)cc1-c1c[nH]c(=O)c2cc(S(=O)(=O)Nc3ccon3)ccc12 [Example 343, 4-(3′-chloro-2-fluoro-5-methoxy-[1,1′-biphenyl]-4-yl)-N-(isoxazol-3-yl)-1-oxo-1,2-dihydroisoquinoline-7-sulfonamide]
107 nM | COc1cc(-c2cccc(F)c2)c(Cl)cc1-c1c(OC)nnc2cc(S(=O)(=O)Nc3ccon3)ccc12 [Example 445, 4-(2-CHLORO-3′-FLUORO-5-METHOXY-[1,1′-BIPHENYL]-4-YL)-N-(ISOXAZOL-3-YL)-3-METHOXYCINNOLINE-7-SULFONAMIDE]
14 nM | COc1cc(-c2ccc(Cl)c(C)c2)c(Cl)cc1-c1nccc2cc(S(=O)(=O)Nc3nncs3)ccc12 [Example 379, 1-(2,4′-dichloro-5-methoxy-3′-methyl-4-biphenylyl)-N-1,3,4-thiadiazol-2-yl-6-isoquinolinesulfonamide]
49 nM | COc1cc(-c2cccc(Cl)c2)c(F)cc1-c1cn(C)c(=O)c2cc(S(=O)(=O)Nc3ccon3)ccc12 [Example 344, 4-(3′-chloro-2-fluoro-5-methoxy-[1,1′-biphenyl]-4-yl)-N-(isoxazol-3-yl)-2-methyl-1-oxo-1,2-dihydroisoquinoline-7-sulfonamide]
90 nM | COc1cc(-c2cccc(F)c2F)c(C)cc1-c1ncnc2cc(S(=O)(=O)Nc3ccon3)ccc12 [Example 562, 4-(2′,3′-difluoro-5-methoxy-2-methyl-4-biphenylyl)-N-3-isoxazolyl-7-quinazolinesulfonamide]
221 nM | COc1cc(-c2cccc(F)c2)c(Cl)cc1-c1ncnc2cc(S(=O)(=O)Nc3ccc(F)cn3)ccc12 [Example 479]
6 nM | COc1cc(-c2cc(F)cc(Cl)c2)c(F)cc1-c1c(=O)[nH]cc2cc(S(=O)(=O)Nc3ccon3)ccc12 [Example 550, 4-(3′-chloro-2,5′-difluoro-5-methoxy-4-biphenylyl)-N-3-isoxazolyl-3-oxo-2,3-dihydro-7-isoquinolinesulfonamide]
479 nM | COc1cc(F)c(-c2ccc(F)nc2)cc1-c1nccc2cc(S(=O)(=O)Nc3ccon3)ccc12 [Example 497, 1-(4-fluoro-5-(6-fluoro-3-pyridinyl)-2-methoxyphenyl)-N-3-isoxazolyl-6-isoquinolinesulfonamide]
86 nM | COc1cc(-c2cc(F)cc(F)c2)c(Cl)cc1-c1ncnc2cc(S(=O)(=O)Nc3ncccn3)ccc12 [Example 435, 4-(2-CHLORO-3′,5′-DIFLUORO-5-METHOXY-[1,1′-BIPHENYL]-4-YL)-N-(PYRIMIDIN-2-YL)QUINAZOLINE-7-SULFONAMIDE]
89 nM | COc1ccc(F)c(-c2cc(OC)c(-c3ncnc4cc(S(=O)(=O)Nc5ccon5)ccc34)cc2C)c1 [Example 561, 4-(2′-fluoro-5,5′-dimethoxy-2-methyl-4-biphenylyl)-N-3-isoxazolyl-7-quinazolinesulfonamide]
1250 nM | COc1cc(-c2cccc(C(F)(F)F)c2)c(F)cc1-c1c2ccc(S(=O)(=O)Nc3ccon3)cc2cc(=O)n1C (atropisomer, axis not shown; (M)) [Example 552, (M)-1-(2-fluoro-5-methoxy-3′-(trifluoromethyl)-4-biphenylyl)-N-3-isoxazolyl-2-methyl-3-oxo-2,3-dihydro-6-isoquinolinesulfonamide]
61 nM | COc1cc(-c2cc(F)cc(C3CC3)c2)c(C)cc1-c1ncnc2cc(S(=O)(=O)Nc3ccon3)ccc12 [Example 555, 4-(3′-cyclopropyl-5′-fluoro-5-methoxy-2-methyl-4-biphenylyl)-N-3-isoxazolyl-7-quinazolinesulfonamide]

Structure (SMILES) | IC50
COc1cc(-c2cccc(F)c2)c(Cl)cc1-c1c(O)cnc2cc(S(=O)(=O)Nc3ccon3)ccc12 (atropisomer, axis not shown; (M)) [Example 337, (M)-4-(2-chloro-3′-fluoro-5-methoxy-[1,1′-biphenyl]-4-yl)-3-hydroxy-N-(isoxazol-3-yl)quinoline-7-sulfonamide] | 71 nM
CCc1cnc2cc(S(=O)(=O)Nc3ccon3)ccc2c1-c1cc(Cl)c(-c2cccc(F)c2)cc1OC (atropisomer, axis not shown; (P)) [Example 333, (P)-4-(2-chloro-3′-fluoro-5-methoxy-[1,1′-biphenyl]-4-yl)-3-ethyl-N-(isoxazol-3-yl)quinoline-7-sulfonamide] | 591 nM
COc1cc(-c2cccc(F)c2)c(Cl)cc1-c1c(C#N)cnc2cc(S(=O)(=O)Nc3ccon3)ccc12 (atropisomer, axis not shown; (P)) [Example 335, (P)-4-(2-chloro-3′-fluoro-5-methoxy-[1,1′-biphenyl]-4-yl)-3-cyano-N-(isoxazol-3-yl)quinoline-7-sulfonamide] | 112 nM
CCc1nnc2cc(S(=O)(=O)Nc3ccon3)ccc2c1-c1cc(Cl)c(-c2cccc(F)c2)cc1OC (atropisomer, axis not shown; (M)) [Example 443, (M)-4-(2-chloro-3′-fluoro-5-methoxy-[1,1′-biphenyl]-4-yl)-3-ethyl-N-(isoxazol-3-yl)cinnoline-7-sulfonamide] | 87 nM
COc1cc(-c2cccc(F)c2)c(Cl)cc1-c1c(C)nnc2cc(S(=O)(=O)Nc3ccon3)ccc12 (atropisomer, axis not shown; (P)) [Example 442, (P)-4-(2-chloro-3′-fluoro-5-methoxy-[1,1′-biphenyl]-4-yl)-N-(isoxazol-3-yl)-3-methylcinnoline-7-sulfonamide] | 251 nM

Same assay, conditions: PatchXpress (PX)

IC50 | Structure (SMILES)
543 nM | COc1cc(C(F)(F)F)c(C2CC2)cc1-c1nccc2cc(S(=O)(=O)Nc3ccon3)ccc12 [Example 258, 1-(5-cyclopropyl-2-methoxy-4-(trifluoromethyl)phenyl)-N-3-isoxazolyl-6-isoquinolinesulfonamide]
189 nM | COc1cc(C(F)(F)F)c(C)cc1-c1nccc2cc(S(=O)(=O)Nc3ccon3)ccc12 [Example 60, N-(ISOXAZOL-3-YL)-1-(2-METHOXY-5-METHYL-4-(TRIFLUOROMETHYL)PHENYL)ISOQUINOLINE-6-SULFONAMIDE]
102 nM | COc1cc(-c2cccc(C)c2)c(C)cc1-c1ncnc2cc(S(=O)(=O)Nc3ccon3)ccc12 [Example 263, N-3-isoxazolyl-4-(5-methoxy-2,3′-dimethyl-4-biphenylyl)-7-quinazolinesulfonamide]
40 nM | COc1cc(-c2cccc(Cl)c2)c(C)cc1-c1nccc2cc(S(=O)(=O)Nc3ccon3)ccc12 [Example 277, 1-(3′-chloro-5-methoxy-2-methyl-4-biphenylyl)-N-3-isoxazolyl-6-isoquinolinesulfonamide]
62.5 nM | COc1cc(-c2cc(C)c(C)cc2C)c(C)cc1-c1ncnc2cc(S(=O)(=O)Nc3ccon3)ccc12 [Example 262, N-3-isoxazolyl-4-(5-methoxy-2,2′,4′,5′-tetramethyl-4-biphenylyl)-7-quinazolinesulfonamide]

Same assay, conditions: in-vitro Nav 1.7 PX (PatchXpress)

IC50 | Structure (SMILES)
58 nM | COc1cc(-c2cc(F)cc(Cl)c2)c(C)cc1-c1nccc2cc(S(=O)(=O)Nc3ccon3)ccc12 [Example 285, 1-(3′-chloro-5′-fluoro-5-methoxy-2-methyl-4-biphenylyl)-N-3-isoxazolyl-6-isoquinolinesulfonamide]
22.8 nM | COc1cc(-c2ccc(F)c(Cl)c2)c(C)cc1-c1nccc2cc(S(=O)(=O)Nc3ccon3)ccc12 [Example 284, 1-(3′-chloro-4′-fluoro-5-methoxy-2-methyl-4-biphenylyl)-N-3-isoxazolyl-6-isoquinolinesulfonamide]
89.5 nM | COc1cc(-c2cccc(F)c2)c(Cl)cc1-c1ncnc2cc(S(=O)(=O)Nc3ncc(F)cn3)ccc12 [Example 289, 4-(2-chloro-3′-fluoro-5-methoxy-4-biphenylyl)-N-(5-fluoro-2-pyrimidinyl)-7-quinazolinesulfonamide]
407 nM | COc1cc(-c2ccc(Cl)c(F)c2)ccc1-c1nccc2cc(S(=O)(=O)Nc3ncccn3)ccc12 [Example 293, 1-(4′-chloro-3′-fluoro-3-methoxy-4-biphenylyl)-N-2-pyrimidinyl-6-isoquinolinesulfonamide]
91 nM | COc1nc(-c2cc(F)cc(F)c2)c(C#N)cc1-c1cccc2cc(S(=O)(=O)Nc3ccncn3)ccc12 [Example 64]
105 nM | COc1cc(-c2ccc(C)c(Cl)c2F)c(F)cc1-c1ncnc2cc(S(=O)(=O)Nc3ccon3)ccc12 [Example 296, 4-(3′-chloro-2,2′-difluoro-5-methoxy-4′-methyl-4-biphenylyl)-N-3-isoxazolyl-7-quinazolinesulfonamide]
40 nM | COc1cc(-c2cc(C)cc(Cl)c2)c(Cl)cc1-c1ncnc2cc(S(=O)(=O)Nc3ccon3)ccc12 [Example 311, 4-(2,3′-dichloro-5-methoxy-5′-methyl-4-biphenylyl)-N-3-isoxazolyl-7-quinazolinesulfonamide]
56 nM | COc1cc(-c2cc(Cl)ccc2F)c(C)cc1-c1ncnc2cc(S(=O)(=O)Nc3ccon3)ccc12 [Example 308, 4-(5′-chloro-2′-fluoro-5-methoxy-2-methyl-4-biphenylyl)-N-3-isoxazolyl-7-quinazolinesulfonamide]
